Laboratory results from patent US9944602B2, “Piperidinone herbicides” (E. I. DU PONT DE NEMOURS AND COMPANY, priority 2014, dated 2018).

How the values were obtained:
Format in all cases: in vivo
[1] = system: barnyardgrass (Echinochloa crus-galli); assay: Test A preemergence barnyardgrass; conditions: 0 to 100 scale, 0 no effect, 100 complete control
In short: (§1)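 Seeds sown in loam–sand blend received a directed preemergence soil spray; postemergence plants (2–10 cm, one- to two-leaf stage) were sprayed in the same soil. Chemicals were formulated in non-phytotoxic solvent with surfactant. After ~10 d in greenhouse, injury was rated visually against untreated controls, 0 (no effect) to 100 (complete control).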

kochia (Kochia scoparia) [2] = assay: Test A preemergence kochia; conditions: 0 to 100 scale, 0 no effect, 100 complete control
In short: as §1

[3] = system: ragweed (common ragweed, Ambrosia elatior); assay: Test A preemergence ragweed; conditions: 0 to 100 scale, 0 no effect, 100 complete control
In short: as §1

[4] = system: ryegrass, Italian (Italian ryegrass, Lolium multiflorum); assay: Test A preemergence ryegrass, Italian; conditions: 0 to 100 scale, 0 no effect, 100 complete control
In short: as §1

[5] = system: foxtail, giant (giant foxtail, Setaria faberii); assay: Test A preemergence foxtail, giant; conditions: 0 to 100 scale, 0 no effect, 100 complete control
In short: as §1

[6] = system: pigweed (Amaranthus retroflexus); assay: Test A preemergence pigweed; conditions: 0 to 100 scale, 0 no effect, 100 complete control
In short: as §1

[7] = system: barnyardgrass (Echinochloa crus-galli); assay: Test A postemergence barnyardgrass; conditions: 0 to 100 scale, 0 is no effect, 100 is complete control
In short: as §1

kochia (Kochia scoparia) [8] = assay: Test A postemergence kochia; conditions: 0 to 100 scale, 0 is no effect, 100 is complete control
In short: as §1

[9] = system: ragweed (common ragweed, Ambrosia elatior); assay: Test A postemergence ragweed; conditions: 0 to 100 scale, 0 is no effect, 100 is complete control
In short: as §1

[10] = system: ryegrass, Italian (Italian ryegrass, Lolium multiflorum); assay: Test A postemergence ryegrass, Italian; conditions: 0 to 100 scale, 0 is no effect, 100 is complete control
In short: as §1

[11] = system: foxtail, giant (giant foxtail, Setaria faberii); assay: Test A postemergence foxtail, giant; conditions: 0 to 100 scale, 0 is no effect, 100 is complete control
In short: as §1

[12] = system: pigweed (Amaranthus retroflexus); assay: Test A postemergence pigweed; conditions: 0 to 100 scale, 0 is no effect, 100 is complete control
In short: as §1

[13] = system: wheat (Triticum aestivum); assay: Test A postemergence wheat; conditions: 0 to 100 scale, 0 is no effect, 100 is complete control
In short: as §1

corn (Zea mays) = assay: Test A postemergence corn; conditions: 0 to 100 scale, 0 is no effect, 100 is complete control
In short: as §1

[14] = system: blackgrass (Alopecurus myosuroides); assay: Test A postemergence blackgrass; conditions: 0 to 100 scale, 0 is no effect, 100 is complete control
In short: as §1

[15] = system: galium (catchweed bedstraw, Galium aparine); assay: Test A postemergence galium; conditions: 0 to 100 scale, 0 is no effect, 100 is complete control
In short: as §1

rice (Oryza sativa) [16] = assay: Test B flooded paddy test rice; conditions: Table B, Flood, 500 g ai/ha, scale 0 to 100
In short: (§2)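 Plants grown to the 2-leaf stage; pots flooded to 3 cm above soil at treatment, compound applied directly into paddy water, depth held throughout. Greenhouse 13 to 15 d, then visual evaluation against untreated controls.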

[17] = system: sedge, umbrella (small-flower umbrella sedge, Cyperus difformis); assay: Test B flooded paddy test sedge, umbrella; conditions: Table B, Flood, 500 g ai/ha, scale 0 to 100
In short: as §2

[18] = system: ducksalad (Heteranthera limosa); assay: Test B flooded paddy test ducksalad; conditions: Table B, Flood, 500 g ai/ha, scale 0 to 100
In short: as §2

[19] = system: barnyardgrass (Echinochloa crus-galli); assay: Test B flooded paddy test barnyardgrass; conditions: Table B, Flood, 500 g ai/ha, scale 0 to 100
In short: as §2

rice (Oryza sativa) [20] = assay: Test C flooded paddy test rice; conditions: Table C, Flood, scale 0 to 100
Excerpt: (§3) Plant species in the flooded paddy test consisted of rice (Oryza sativa), sedge, umbrella (small-flower umbrella sedge, Cyperus difformis), ducksalad (Heteranthera limosa), and barnyardgrass (Echinochloa crus-galli) grown to the 2-leaf stage for testing. At time of treatment, test pots were flooded to 3 cm above the soil surface, treated by application of test compounds directly to the paddy water, and then maintained at that water depth for the duration of the test. Treated plants and controls were maintained in a greenhouse for 13 to 15 d, after which time all species were compared to controls and visually evaluated. Plant response ratings, summarized in Table C, are based on a scale of 0 to 100 where 0 is no effect and 100 is complete control. A dash (-) response means no test result.

[21] = system: sedge, umbrella (small-flower umbrella sedge, Cyperus difformis); assay: Test C flooded paddy test sedge, umbrella; conditions: Table C, Flood, scale 0 to 100
Excerpt: as §3

[22] = system: ducksalad (Heteranthera limosa); assay: Test C flooded paddy test ducksalad; conditions: Table C, Flood, scale 0 to 100
Excerpt: as §3

[23] = system: barnyardgrass (Echinochloa crus-galli); assay: Test C flooded paddy test barnyardgrass; conditions: Table C, Flood, scale 0 to 100
Excerpt: as §3

SMILES: O=C1NCCC(c2cccc(C(F)(F)F)c2)C1C(=O)Nc1cccc(F)c1Cl (racemic) [Compound 19]
- Barnyardgrass plant response rating ([1]; 125 g ai/ha): 70
- Barnyardgrass plant response rating ([1]; 500 g ai/ha): 80
- Kochia plant response rating (kochia (Kochia scoparia) [2]; 125 g ai/ha): 0
- Kochia plant response rating (kochia (Kochia scoparia) [2]; 500 g ai/ha): 20
- Ragweed plant response rating ([3]; 125 g ai/ha): 0
- Ragweed plant response rating ([3]; 500 g ai/ha): 20
- Ryegrass, Italian plant response rating ([4]; 125 g ai/ha): 20
- Ryegrass, Italian plant response rating ([4]; 500 g ai/ha): 30
- Foxtail, Giant plant response rating ([5]; 125 g ai/ha): 80
- Foxtail, Giant plant response rating ([5]; 500 g ai/ha): 90
- Pigweed plant response rating ([6]; 125 g ai/ha): 0
- Pigweed plant response rating ([6]; 500 g ai/ha): 0
- Plant response rating, Barnyardgrass ([7]; 125 g ai/ha): 60
- Plant response rating, Barnyardgrass ([7]; 500 g ai/ha): 80
- Plant response rating, Kochia (kochia (Kochia scoparia) [8]; 125 g ai/ha): 0
- Plant response rating, Kochia (kochia (Kochia scoparia) [8]; 500 g ai/ha): 20
- Plant response rating, Ragweed ([9]; 125 g ai/ha): 0
- Plant response rating, Ragweed ([9]; 500 g ai/ha): 0
- Plant response rating, Ryegrass, Italian ([10]; 125 g ai/ha): 0
- Plant response rating, Ryegrass, Italian ([10]; 500 g ai/ha): 20
- Plant response rating, Foxtail, Giant ([11]; 125 g ai/ha): 70
- Plant response rating, Foxtail, Giant ([11]; 500 g ai/ha): 80
- Plant response rating, Pigweed ([12]; 125 g ai/ha): 0
- Plant response rating, Pigweed ([12]; 500 g ai/ha): 0
- Plant response rating, Wheat ([13]; 125 g ai/ha): 0
- Plant response rating, Wheat ([13]; 500 g ai/ha): 30
- Plant response rating, Corn (corn (Zea mays); 125 g ai/ha): 0
- Plant response rating, Corn (corn (Zea mays); 500 g ai/ha): 50
- Plant response rating, Blackgrass ([14]; 125 g ai/ha): 40
- Plant response rating, Blackgrass ([14]; 500 g ai/ha): 50
- Plant response rating, Galium ([15]; 125 g ai/ha): 20
- Plant response rating, Galium ([15]; 500 g ai/ha): 20
- Plant response rating (rice (Oryza sativa) [16]): 0
- Plant response rating [17]: 0
- Plant response rating [18]: 60
- Plant response rating [19]: 60
- Plant response rating (rice (Oryza sativa) [20]; 31 g ai/ha): 0
- Plant response rating (rice (Oryza sativa) [20]; 62 g ai/ha): 0
- Plant response rating (rice (Oryza sativa) [20]; 125 g ai/ha): 0
- Plant response rating (rice (Oryza sativa) [20]; 250 g ai/ha): 0
- Plant response rating ([21]; 31 g ai/ha): 0
- Plant response rating ([21]; 62 g ai/ha): 0
- Plant response rating ([21]; 125 g ai/ha): 0
- Plant response rating ([21]; 250 g ai/ha): 0
- Plant response rating ([22]; 31 g ai/ha): 0
- Plant response rating ([22]; 62 g ai/ha): 0
- Plant response rating ([22]; 125 g ai/ha): 0
- Plant response rating ([22]; 250 g ai/ha): 0
- Plant response rating ([23]; 31 g ai/ha): 0
- Plant response rating ([23]; 62 g ai/ha): 0
- Plant response rating ([23]; 125 g ai/ha): 0
- Plant response rating ([23]; 250 g ai/ha): 0
